Where a name gives a salt, the structure may show the parent alone.
Key:
clinical = details: human, in vivo, po, Human blood level, single oral dose 500 mg D,L-lysine salt (Table 5) or equivalent 300 mg sodium salt (Table 6), serum, as free acid
Description: The blood levels were then determined after 0.5, 1, 1.5, 2, 3, 4 and 5 hours.

pH of aqueous solution = assay type: physicochemical
Solubility = assay type: physicochemical
[1] = tested on: pain threshold in the inflamed paw (carrageenin oedema); experiment: Pain threshold under pressure of the inflamed (carrageenin) rat paw (analgesic action); details: for Pain threshold - carrageenin oedema: Table 3
Description: At intervals after the treatment, the size of the treated paw and its sensitivity to pain under pressure were evaluated.

[2] = tested on: carrageenin oedema, inflamed paw; experiment: Carrageenin oedema of the rat paw (anti-inflammatory action, paw size/volume); assay type: in vivo, male Wistar rats; details: oral, Tables 1, 2 and 3
gastro-intestinal mucosa = details: in vivo; cited from earlier work

`CC(C)Cc1ccc(C(C)C(=O)[O-])cc1.[Na+]` (stereo not drawn) gave a concentration at 0.5 h (clinical; subject B) of 10500 ng/mL, a concentration at 0.5 h (clinical; subject C) of 3800 ng/mL and a concentration at 0.5 h (clinical; subject D) of 5500 ng/mL. The concentration at 0.5 h (clinical; subject E) was 3300 ng/mL, the concentration at 1 h (clinical; subject B) was 16600 ng/mL and the concentration at 1 h (clinical; subject C) was 4500 ng/mL. It also gave a concentration at 1 h (clinical; subject D) of 6000 ng/mL, a concentration at 1 h (clinical; subject E) of 9800 ng/mL and a concentration at 1.5 h (clinical; subject B) of 11000 ng/mL. For the same molecule, the concentration at 1.5 h (clinical; subject C) was 6000 ng/mL, the concentration at 1.5 h (clinical; subject D) was 7000 ng/mL and the concentration at 1.5 h (clinical; subject E) was 8700 ng/mL. For the same molecule, the concentration at 2 h (clinical; subject A) was 900 ng/mL, the concentration at 2 h (clinical; subject B) was 10300 ng/mL and the concentration at 2 h (clinical; subject C) was 8700 ng/mL. It also gave a concentration at 2 h (clinical; subject D) of 16300 ng/mL, a concentration at 2 h (clinical; subject E) of 7900 ng/mL and a concentration at 3 h (clinical; subject A) of 1300 ng/mL. It also gave a concentration at 3 h (clinical; subject B) of 3000 ng/mL, a concentration at 3 h (clinical; subject C) of 8700 ng/mL and a concentration at 3 h (clinical; subject D) of 13600 ng/mL. For the same molecule, the concentration at 3 h (clinical; subject E) was 9600 ng/mL, the concentration at 4 h (clinical; subject A) was 4200 ng/mL and the concentration at 4 h (clinical; subject B) was 2700 ng/mL. The concentration at 4 h (clinical; subject C) was 9600 ng/mL, the concentration at 4 h (clinical; subject D) was 7300 ng/mL and the concentration at 4 h (clinical; subject E) was 7000 ng/mL. For the same molecule, the concentration at 5 h (clinical; subject A) was 6300 ng/mL, the concentration at 5 h (clinical; subject B) was 1400 ng/mL and the concentration at 5 h (clinical; subject C) was 4300 ng/mL. The concentration at 5 h (clinical; subject D) was 6900 ng/mL, the concentration at 5 h (clinical; subject E) was 5300 ng/mL and the concentration at 0.5 h (clinical; mean) was 8300 ng/mL. The concentration at 1 h (clinical; mean) was 13600 ng/mL, the concentration at 1.5 h (clinical; mean) was 11600 ng/mL and the concentration at 2 h (clinical; mean) was 12700 ng/mL. It also gave a concentration at 3 h (clinical; mean) of 10800 ng/mL, a concentration at 4 h (clinical; mean) of 7800 ng/mL and a concentration at 5 h (clinical; mean) of 5400 ng/mL.
For `CC(C)Cc1ccc(C(C)C(=O)O)cc1` (racemic) [Example 8, D,L-arginine salt of 2-(4-isobutylphenyl)-propionic acid], the “pH of aqueous solution” value (pH of aqueous solution) was “pH close to neutrality” and the “Solubility in water” value (Solubility) was “moderately soluble in water”.
With `CC(C)Cc1ccc(C(C)C(=O)O)cc1` (stereo not drawn) [Example 3] the “Analgesic action, intravenous, compared with free acid and phenyl-butazone” value ([1]; i.v., doses of the order of 10 times less, Table 4) was “clearly more active and quicker acting than both the free acid and phenyl-butazone” and the “Anti-inflammatory and analgesic action compared with free acid and phenyl-butazone” value [2] was “as active as or more active than the equivalent dose of the corresponding free acid and is as effective as a double dose of phenyl-butazone”.
For `CC(C)Cc1ccc(CC(=O)O)cc1` [Example 4, lysine salt of 2-(4-isobutyl-phenyl)-acetic acid], the “Solubility in water” value (Solubility) was “soluble in water”.
For `O=C(O)Cc1ccccc1Oc1ccc(Cl)cc1Cl` [Example 6, lysine salt of 2-(2,4-dichlorophenoxy)-phenyl-acetic acid], the “Solubility in water” value (Solubility) was “water-soluble”.
In the case of `CC(C)Cc1ccc(C(C)C(=O)O)cc1` (stereo not drawn) [Example 9], the “pH of aqueous solution” value (pH of aqueous solution) is reported as “analogous to those of the product obtained in Example 8” and the “Solubility in water” value (Solubility) is reported as “analogous to those of the product obtained in Example 8”.
In the case of `C=CCOc1ccc(CC(=O)O)cc1Cl` [Example 10, arginine salt of 2-(3-chloro-4-allyloxyphenyl)-acetic acid], the “Solubility in water” value (Solubility) is reported as “moderately soluble in water”.
With `CC(C(=O)O)c1ccc(C2CCCCC2)cc1` (stereo not drawn) [Example 11, arginine salt of 2-(4-cyclohexyl-phenyl)-propionic acid] the “Solubility in water” value (Solubility) was “moderately soluble in water”.
In the case of `CC(C(=O)O)c1cccc(Oc2ccccc2)c1` (stereo not drawn) [Example 12, arginine salt of 2-(3-phenoxy-phenyl)-propionic acid], the “Solubility in water” value (Solubility) is reported as “moderately soluble in water”.
For `CC(C)Cc1ccc(C(C)C(=O)O)cc1` (stereo not drawn) [Ibuprofen], the “Pain threshold - carrageenin oedema” value ([1]; 50 mg/kg p.o. (lysine salt: 30 as active substance), 0 hrs, control 101.7 ± 3.19, 50 mg/kg) was 101.0 ± 2.85 g, the “Pain threshold - carrageenin oedema” value ([1]; 50 mg/kg p.o. (lysine salt: 30 as active substance), 3 hrs, control 52.7 ± 2.00, **p = 0.01, 50 mg/kg) was 85.7 ± 4.05 g and the “Pain threshold - carrageenin oedema” value ([1]; 50 mg/kg p.o. (lysine salt: 30 as active substance), 5 hrs, control 51.3 ± 2.15, **p = 0.01, 50 mg/kg) was 70.7 ± 3.45 g. The “Pain threshold - carrageenin oedema” value ([1]; 100 mg/kg p.o. (lysine salt: 60 as active substance), 0 hrs, control 101.7 ± 3.19, 100 mg/kg) was 105.3 ± 3.10 g, the “Pain threshold - carrageenin oedema” value ([1]; 100 mg/kg p.o. (lysine salt: 60 as active substance), 3 hrs, control 52.7 ± 2.00, **p = 0.01, 100 mg/kg) was 104.3 ± 3.51 g and the “Pain threshold - carrageenin oedema” value ([1]; 100 mg/kg p.o. (lysine salt: 60 as active substance), 5 hrs, control 51.3 ± 2.15, **p = 0.01, 100 mg/kg) was 80.3 ± 5.66 g. For the same molecule, the “Pain threshold - carrageenin oedema” value ([1]; 200 mg/kg p.o. (lysine salt: 120 as active substance), 0 hrs, control 101.7 ± 3.19, 200 mg/kg) was 101.0 ± 3.21 g, the “Pain threshold - carrageenin oedema” value ([1]; 200 mg/kg p.o. (lysine salt: 120 as active substance), 3 hrs, control 52.7 ± 2.00, **p = 0.01, 200 mg/kg) was 119.7 ± 3.50 g and the “Pain threshold - carrageenin oedema” value ([1]; 200 mg/kg p.o. (lysine salt: 120 as active substance), 5 hrs, control 51.3 ± 2.15, **p = 0.01, 200 mg/kg) was 85.7 ± 4.70 g.
In the case of `CC(=O)Oc1ccccc1C(=O)O` [aspirin], the “Undesired side-effects (gastro-intestinal intolerance, ulceration) compared with phenyl-alkanoic acids” value (gastro-intestinal mucosa) is given as “also show these undesired side-effects in an even more pronounced form”.
